Test results as given in patent publication US20230072683A1, “PYRIDO-PYRIMIDIN DERIVATIVES AND PHARMACEUTICAL COMPOSITION, FOR USE IN PREVENTING OR TREATING PI3 KINASE RELATED DISEASES, COMPRISING SAME AS ACTIVE INGREDIENT” (BORYUNG PHARMACEUTICAL CO., LTD, priority 2019, published 2023).

How the values were obtained:
DNA-PK(h) = DNA-PK(h) (Homo sapiens, UniProt P78527); test: Evaluation of inhibitory activity against DNA-PK (HTRF kinase assay, GST-cMyc-p53 substrate); type: biochemical; conditions: for inhibition at 0.1 µM: compound at 0.1 μM, read-out: EXP_VALUE(% Inhibition) DNA-PK(h) 0.1 μM
Method in brief: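 p53 Ser15 phosphorylation by human DNA-PK was measured by time-resolved FRET ratio (665/620 nm ×10000) using Eu-labelled anti-phospho-Ser15 and d2 anti-GST antibodies. Substrate GST-cMyc-p53 at 50 μM; Mg/ATP-initiated, 30 min at room temperature, EDTA stop.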

[1] = molecular target: PI3K-δ (PI3K(p1108/p857) (h)) (Homo sapiens, UniProt O00329); test: Evaluation of inhibitory activity against PI3K-δ (HTRF kinase assay); type: biochemical; conditions: for inhibition at 0.1 µM: compound at 0.1 μM, read-out: EXP_VALUE(% Inhibition) PI3K-δ 0.1 μM
Method in brief: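 HTRF read-out (665/620 nm ratio ×10000) used Eu-labelled anti-GST, GST-tagged GRP1 PH domain and streptavidin-allophycocyanin after EDTA/PIP3 stop.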

Sequence of PI3K-δ (PI3K(p1108/p857) (h)) (O00329 whole entry, the tested form may be a part): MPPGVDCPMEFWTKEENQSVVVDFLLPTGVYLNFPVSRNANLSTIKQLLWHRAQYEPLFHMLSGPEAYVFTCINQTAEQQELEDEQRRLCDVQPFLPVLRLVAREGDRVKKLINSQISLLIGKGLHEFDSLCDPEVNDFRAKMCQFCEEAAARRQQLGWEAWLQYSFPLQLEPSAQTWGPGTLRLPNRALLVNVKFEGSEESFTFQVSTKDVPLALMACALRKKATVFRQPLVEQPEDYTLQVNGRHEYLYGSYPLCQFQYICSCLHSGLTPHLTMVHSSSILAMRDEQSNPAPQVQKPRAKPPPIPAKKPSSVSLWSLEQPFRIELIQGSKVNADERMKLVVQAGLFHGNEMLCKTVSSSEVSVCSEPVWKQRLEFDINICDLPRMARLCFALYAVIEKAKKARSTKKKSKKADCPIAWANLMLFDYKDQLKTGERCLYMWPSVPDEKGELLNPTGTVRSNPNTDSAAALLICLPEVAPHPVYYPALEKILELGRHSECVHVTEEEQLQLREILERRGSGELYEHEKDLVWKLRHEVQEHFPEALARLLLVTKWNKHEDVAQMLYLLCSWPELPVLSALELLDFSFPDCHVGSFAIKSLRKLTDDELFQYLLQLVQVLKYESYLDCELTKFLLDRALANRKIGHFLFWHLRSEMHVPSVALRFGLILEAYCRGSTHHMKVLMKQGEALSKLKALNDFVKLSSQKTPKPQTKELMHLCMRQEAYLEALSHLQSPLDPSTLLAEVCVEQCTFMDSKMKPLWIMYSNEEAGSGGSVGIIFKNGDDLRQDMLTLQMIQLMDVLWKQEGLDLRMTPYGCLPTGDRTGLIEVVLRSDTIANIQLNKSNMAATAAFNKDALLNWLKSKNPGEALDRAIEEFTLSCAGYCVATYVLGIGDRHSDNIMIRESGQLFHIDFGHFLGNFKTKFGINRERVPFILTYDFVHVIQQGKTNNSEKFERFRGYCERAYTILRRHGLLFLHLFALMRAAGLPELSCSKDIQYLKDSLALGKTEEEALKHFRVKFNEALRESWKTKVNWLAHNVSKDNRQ
Sequence of PI3K-δ (PI3K(p1108/p857) (h)) (P27986 whole entry partner, the tested form may be a part): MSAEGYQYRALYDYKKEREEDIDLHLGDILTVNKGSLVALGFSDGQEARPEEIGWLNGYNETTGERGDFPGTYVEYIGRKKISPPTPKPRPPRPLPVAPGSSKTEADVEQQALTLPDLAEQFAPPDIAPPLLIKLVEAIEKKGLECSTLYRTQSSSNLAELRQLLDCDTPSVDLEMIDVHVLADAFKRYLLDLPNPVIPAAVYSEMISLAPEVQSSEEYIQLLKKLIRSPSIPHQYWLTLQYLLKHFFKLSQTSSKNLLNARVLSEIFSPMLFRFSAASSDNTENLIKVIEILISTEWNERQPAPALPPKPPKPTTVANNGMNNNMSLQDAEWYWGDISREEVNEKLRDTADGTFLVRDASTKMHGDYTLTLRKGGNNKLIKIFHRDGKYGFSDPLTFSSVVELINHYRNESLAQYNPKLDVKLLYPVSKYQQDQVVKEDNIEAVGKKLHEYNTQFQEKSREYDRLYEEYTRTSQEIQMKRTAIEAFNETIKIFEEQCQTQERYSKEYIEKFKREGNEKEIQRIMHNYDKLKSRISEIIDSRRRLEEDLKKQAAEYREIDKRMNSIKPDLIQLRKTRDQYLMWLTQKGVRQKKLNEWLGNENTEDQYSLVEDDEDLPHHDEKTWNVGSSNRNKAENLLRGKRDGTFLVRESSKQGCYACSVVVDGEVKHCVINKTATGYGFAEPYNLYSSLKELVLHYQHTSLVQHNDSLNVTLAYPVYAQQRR

Row | SMILES | inhibition at 0.1 µM (DNA-PK(h)) | inhibition at 0.1 µM [1] | inhibition at 0.01 µM (DNA-PK(h); compound at 0.01 μM, read-out: EXP_VALUE(% Inhibition) DNA-PK(h) 0.01 μM) | inhibition at 0.01 µM ([1]; compound at 0.01 μM, read-out: EXP_VALUE(% Inhibition) PI3K-δ 0.01 μM)
1 | C[C@H](Nc1ncnc2[nH]ccc(=O)c12)c1c(Cl)c2cccc(-c3cnc(OC(C)(C)C)nc3)c2c(=O)n1-c1ccccc1 [Example 424, (S)-4-((1-(8-(2-(tert-butoxy)pyrimidin-5-yl)-4-chloro-1-oxo-2-phenyl-1,2-dihydroisoquinolin-3-yl)ethyl)amino)pyrido[2,3-d]pyrimidin-5(8H)-one] | 56% | 38% | – | –
2 | C[C@H](Nc1ncnc2[nH]ccc(=O)c12)c1c(Cl)c2cccc(Oc3ccncc3)c2c(=O)n1-c1ccccc1 [Example 428, (S)-4-((1-(4-chloro-1-oxo-2-phenyl-8-(pyridin-4-yloxy)-1,2-dihydroisoquinolin-3-yl)ethyl)amino)pyrido[2,3-d]pyrimidin-5(8H)-one] | 13% | 86% | – | –
3 | C[C@H](Nc1ncnc2[nH]ccc(=O)c12)c1c(Cl)c2cccc(OCc3ccncc3)c2c(=O)n1-c1ccccc1 [Example 429, (S)-4-((1-(4-chloro-1-oxo-2-phenyl-8-(pyridin-4-ylmethoxy)-1,2-dihydroisoquinolin-3-yl)ethyl)amino)pyrido[2,3-d]pyrimidin-5(8H)-one] | 63% | 47% | – | –
4 | C[C@H](Nc1ncnc2[nH]ccc(=O)c12)c1c(Cl)c2cccc(OCc3ccccn3)c2c(=O)n1-c1ccccc1 [Example 430, (S)-4-((1-(4-chloro-1-oxo-2-phenyl-8-(pyridin-2-ylmethoxy)-1,2-dihydroisoquinolin-3-yl)ethyl)amino)pyrido[2,3-d]pyrimidin-5(8H)-one] | 68% | 44% | – | –
5 | C[C@H](Nc1ncnc2[nH]ccc(=O)c12)c1c(Cl)c2cccc([S+]([O-])C3COC3)c2c(=O)n1-c1ccccc1 (stereo partly drawn) [Example 431, 4-(((1S)-1-(4-chloro-8-(oxetan-3-ylsulfinyl)-1-oxo-2-phenyl-1,2-dihydroisoquinolin-3-yl)ethyl)amino)pyrido[2,3-d]pyrimidin-5(8H)-one] | 57% | 32% | – | –
6 | C[C@H](Nc1ncnc2[nH]ccc(=O)c12)c1c(Cl)c2cccc(S(=O)(=O)C3COC3)c2c(=O)n1-c1ccccc1 [Example 432, (S)-4-((1-(4-chloro-8-(oxetan-3-ylsulfonyl)-1-oxo-2-phenyl-1,2-dihydroisoquinolin-3-yl)ethyl)amino)pyrido[2,3-d]pyrimidin-5(8H)-one] | 47% | 87% | – | –
7 | C[C@H](Nc1ncnc2[nH]ccc(=O)c12)c1c(Cl)c2cccc(S(=O)(=O)C(C)(C)C)c2c(=O)n1-c1ccccc1 [Example 433, (S)-4-((1-(8-(tert-butylsulfonyl)-4-chloro-1-oxo-2-phenyl-1,2-dihydroisoquinolin-3-yl)ethyl)amino)pyrido[2,3-d]pyrimidin-5(8H)-one] | 24% | 8% | – | –
8 | C[C@H](Nc1ncnc2[nH]ccc(=O)c12)c1c(Cl)c2cccc(Oc3cccnc3)c2c(=O)n1-c1ccccc1 [Example 437, (S)-4-((1-(4-chloro-1-oxo-2-phenyl-8-(pyridin-3-yloxy)-1,2-dihydroisoquinolin-3-yl)ethyl)amino)pyrido[2,3-d]pyrimidin-5(8H)-one] | 53% | 33% | – | –
9 | C[C@H](Nc1ncnc2[nH]ccc(=O)c12)c1c(Cl)c2cccc(-c3cnc(C4(O)CCC4)nc3)c2c(=O)n1-c1ccccc1 [Example 438, (S)-4-((1-(4-chloro-8-(2-(1-hydroxycyclobutyl)pyrimidin-5-yl)-1-oxo-2-phenyl-1,2-dihydroisoquinolin-3-yl)ethyl)amino)pyrido[2,3-d]pyrimidin-5(8H)-one] | 64% | 87% | – | –
10 | C[C@H](Nc1ncnc2[nH]ccc(=O)c12)c1c(Cl)c2cccc(C(=O)NCc3ccncc3)c2c(=O)n1-c1ccccc1 [Example 439, (S)-4-chloro-1-oxo-3-(1-((5-oxo-5,8-dihydropyrido[2,3-d]pyrimidin-4-yl)amino)ethyl)-2-phenyl-N-(pyridin-4-ylmethyl)-1,2-dihydroisoquinoline-8-carboxamide] | 16% | 92% | – | –
11 | C[C@H](Nc1ncnc2[nH]ccc(=O)c12)c1c(Cl)c2cccc(C(=O)Nc3ccccc3)c2c(=O)n1-c1ccccc1 [Example 440, (S)-4-chloro-1-oxo-3-(1-((5-oxo-5,8-dihydropyrido[2,3-d]pyrimidin-4-yl)amino)ethyl)-N, 2-diphenyl-1,2-dihydroisoquinoline-8-carboxamide] | 16% | 92% | – | –

The next lines start with the values.

Row | inhibition at 0.1 µM (DNA-PK(h)) | inhibition at 0.1 µM [1] | inhibition at 0.01 µM (DNA-PK(h); compound at 0.01 μM, read-out: EXP_VALUE(% Inhibition) DNA-PK(h) 0.01 μM) | inhibition at 0.01 µM ([1]; compound at 0.01 μM, read-out: EXP_VALUE(% Inhibition) PI3K-δ 0.01 μM) | SMILES
12 | 16% | 86% | – | – | C[C@H](Nc1ncnc2[nH]ccc(=O)c12)c1c(Cl)c2cccc(S(C)(=N)=O)c2c(=O)n1-c1ccccc1 (stereo partly drawn) [Example 425, 4-(((1S)-1-(4-chloro-8-(S-methylsulfonimidoyl)-1-oxo-2-phenyl-1,2-dihydroisoquinolin-3-yl)ethyl)amino)pyrido[2,3-d]pyrimidin-5(8H)-one]
13 | 8% | 12% | – | – | C[C@H](Nc1ncnc2[nH]ccc(=O)c12)c1c(Cl)c2cccc(SC(C)(C)C)c2c(=O)n1-c1ccccc1 [Example 426, (S)-4-((1-(8-(tert-butylthio)-4-chloro-1-oxo-2-phenyl-1,2-dihydroisoquinolin-3-yl)ethyl)amino)pyrido[2,3-d]pyrimidin-5(8H)-one]
14 | 7% | 38% | – | – | C[C@H](Nc1ncnc2[nH]ccc(=O)c12)c1c(Cl)c2cccc(S)c2c(=O)n1-c1ccccc1 [Example 427, (S)-4-((1-(4-chloro-8-mercapto-1-oxo-2-phenyl-1,2-dihydroisoquinolin-3-yl)ethyl)amino)pyrido[2,3-d]pyrimidin-5(8H)-one]
15 | 32% | 8% | – | – | CCSc1cccc2c(Cl)c([C@H](C)Nc3ncnc4[nH]ccc(=O)c34)n(-c3ccccc3)c(=O)c12 [Example 434, (S)-4-((1-(4-chloro-8-(ethylthio)-1-oxo-2-phenyl-1,2-dihydroisoquinolin-3-yl)ethyl)amino)pyrido[2,3-d]pyrimidin-5(8H)-one]
16 | 18% | 24% | – | – | CC[S@@](=N)(=O)c1cccc2c(Cl)c([C@H](C)Nc3ncnc4[nH]ccc(=O)c34)n(-c3ccccc3)c(=O)c12 [Example 435, 4-(((S)-1-(4-chloro-8-((R)-ethylsulfonimidoyl)-1-oxo-2-phenyl-1,2-dihydroisoquinolin-3-yl)ethyl)amino)pyrido[2,3-d]pyrimidin-5(8H)-one]
17 | 9% | 7% | – | – | CC[S@](=N)(=O)c1cccc2c(Cl)c([C@H](C)Nc3ncnc4[nH]ccc(=O)c34)n(-c3ccccc3)c(=O)c12 [Example 436, 4-(((S)-1-(4-chloro-8-((S)-ethylsulfonimidoyl)-1-oxo-2-phenyl-1,2-dihydroisoquinolin-3-yl)ethyl)amino)pyrido[2,3-d]pyrimidin-5(8H)-one]
18 | – | – | 35% | 54% | C[C@H](O)c1cccc2c(Cl)c([C@H](C)Nc3ncnc4[nH]ccc(=O)c34)n(-c3ccccc3)c(=O)c12 [Example 441, 4-(((S)-1-(4-chloro-8-((S)-1-hydroxyethyl)-1-oxo-2-phenyl-1,2-dihydroisoquinolin-3-yl)ethyl)amino)pyrido[2,3-d]pyrimidin-5(8H)-one]
